# According to PubChem BioAssay (NCI):
#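 Step 1: Grow cells in 96-well plates. Step 2: Expose to compound for 48 hours at 5 concentrations. Step 3: Interpolate endpoints linearly; if unreached, use highest concentration. GI50 = concentration required for 50% inhibition of growth. TGI marks complete inhibition of growth.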
# Legend:
# Assay in all cases: DTP human tumour cell line panel, 48 h
# 786-0 renal = tested on: 786-0 renal
# CCRF-CEM leukemia = tested on: CCRF-CEM leukemia
# EKVX NSCLC = tested on: EKVX NSCLC
# LOX IMVI melanoma = tested on: LOX IMVI melanoma
# NCI-H23 lung = tested on: NCI-H23 lung
# NCI-H460 lung = tested on: NCI-H460 lung
# OVCAR-3 ovarian = tested on: OVCAR-3 ovarian
# SK-OV-3 ovarian = tested on: SK-OV-3 ovarian
# SR leukemia = tested on: SR leukemia
# HCT-15 colon = tested on: HCT-15 colon
Structure (SMILES),GI50 (786-0 renal) [µM],TGI (786-0 renal) [µM],GI50 (CCRF-CEM leukemia) [µM],TGI (CCRF-CEM leukemia) [µM],GI50 (EKVX NSCLC) [µM],TGI (EKVX NSCLC) [µM],GI50 (LOX IMVI melanoma) [µM],TGI (LOX IMVI melanoma) [µM],GI50 (NCI-H23 lung) [µM],TGI (NCI-H23 lung) [µM],GI50 (NCI-H460 lung) [µM],TGI (NCI-H460 lung) [µM],GI50 (OVCAR-3 ovarian) [µM],TGI (OVCAR-3 ovarian) [µM],GI50 (SK-OV-3 ovarian) [µM],TGI (SK-OV-3 ovarian) [µM],GI50 (SR leukemia) [µM],TGI (SR leukemia) [µM],TGI (HCT-15 colon) [µM],GI50 (HCT-15 colon) [µM]
CN(C)CCNc1nc2ccccc2c2[nH]c3ccccc3c12,0.396,2.51,0.937,3.95,1.7,14.3,0.301,1.11,0.96,4.65,0.244,1.97,0.438,2.01,1.72,13.9,0.341,1.31,–,–
Cc1nc2nnc(C)n2c2c1C(=O)Nc1ccccc1N2,–,> 100,–,> 100,–,> 100,–,> 100,–,> 100,–,> 100,–,> 100,–,> 100,–,> 100,–,–
COc1cc2c(cc1O)[C@H](Cc1ccc(Oc3cc(C[C@H]4c5cc(OC)c(OC)cc5CCN4C)ccc3OC)cc1)NCC2,–,25.2,–,37,–,–,–,22.4,–,24.2,–,27.7,–,22.4,–,–,–,30.1,21.4,–
O=C1NC(=O)C2C(=O)NC(=O)C1C2(c1ccccc1)c1ccc(Cl)cc1 (stereo not given),–,> 100,–,> 100,–,> 100,–,> 100,–,> 100,–,> 100,–,> 100,–,> 100,–,–,> 100,–
COc1cc([C@@H]2c3cc4c(cc3[C@@H](NC(=O)c3cccc([N+](=O)[O-])c3)C3COC(=O)[C@@H]32)OCO4)cc(OC)c1O (stereo not given in full),–,0.833,–,> 100,–,10.8,–,9.41,–,1.11,–,1.32,–,27.9,–,–,–,–,4.31,–
O=C(O)/C=C/C(=O)Nc1ncn[nH]1,–,> 100,–,–,–,> 100,–,> 100,–,> 100,–,> 100,–,> 100,–,> 100,–,–,> 100,–
O=C1CCC(NC(=O)c2ccccc2)C(=O)N1 (stereo not given),–,> 100,–,–,–,> 100,–,> 100,–,> 100,–,> 100,–,> 100,–,> 100,–,> 100,> 100,–
C[Si](C)(C)c1ccc(CC2(Cc3ccc([Si](C)(C)C)cc3)CCNC2)cc1,–,3.38,–,48.1,–,18.9,–,3.19,–,3.47,–,3.73,–,3.93,–,3.8,–,–,4.86,–
CCCNC(=O)OCc1c(COC(=O)NCCC)c(-c2ccc(Cl)c(Cl)c2)n2c1CCC2,–,11.4,–,7.95,–,30.2,–,15.8,–,26.5,–,17.2,–,41.5,–,10.5,–,–,19.8,–
COc1ccc(CN2CCCC(C(=O)c3ccc(C(F)(F)F)cc3)C2)c(O)c1 (stereo not given),17.3,40.4,35.2,> 100,–,–,18.4,35.3,28.5,> 100,26.7,> 100,36.2,> 100,36.1,> 100,18,66.5,36,14.6
COc1ccc(/C=C(/C(=O)O)c2cc(OC)c(OC)c(OC)c2)cc1,–,> 100,–,> 100,–,> 100,–,–,–,> 100,–,> 100,–,64.1,–,> 100,–,> 100,–,–
Cc1cccc(C(C)(C)C)c1NC(=O)C(=O)Cc1nc2ccccc2s1,–,> 100,–,–,–,> 100,–,> 100,–,> 100,–,> 100,–,> 100,–,> 100,–,–,> 100,–
CN(C)S(=O)(=O)Nc1ccccn1,–,> 100,–,–,–,> 100,–,> 100,–,> 100,–,> 100,–,> 100,–,> 100,–,> 100,> 100,–
c1ccc(-c2nnc(-c3nn(-c4ccccc4)c4nc5ccccc5nc34)o2)cc1,–,> 100,–,85.5,–,> 100,–,> 100,–,> 100,–,–,–,> 100,–,> 100,–,–,> 100,–
COc1cc2c(c(OC)c1OC)-c1ccc(NCc3ccccc3)c(=O)cc1[C@@H](NC(C)=O)CC2,0.745,46.8,0.34,> 100,–,–,0.444,14.9,0.628,54.9,0.369,18,0.309,2.82,0.294,0.833,0.436,> 44.3,> 48.4,1.09
CC1CCC[P+](Cc2ccccc2)(c2ccccc2)CC1 (stereo not given),–,> 100,–,> 100,–,> 100,–,> 100,–,> 100,–,> 100,–,–,–,> 100,–,–,> 100,–
CN(C)c1ccc2c(c1)oc(=O)c1ccccc12,–,26.5,–,27.9,–,52.3,–,18.7,–,22.4,–,58,–,16.4,–,–,–,21.5,27,–
Cc1c(N2C(=O)/C(=C\c3ccccc3O)N=C2c2ccccc2)c(=O)n(-c2ccccc2)n1C,29.9,> 100,–,–,77,> 100,62.3,> 100,> 100,> 100,> 100,> 100,> 100,> 100,57.3,> 100,–,–,> 100,> 100
Cn1c(-c2nonc2N)nc2cnccc21,> 25,> 25,> 25,> 25,16.5,> 25,> 25,> 25,> 25,> 25,> 25,> 25,> 25,> 25,> 25,> 25,–,–,> 25,> 25
O=C1c2ccccc2-c2c1c1cc3c(cc1c(=O)n2CCCCl)OCO3,18.4,45.7,66.1,> 100,> 100,> 100,39.7,> 100,21.5,87.3,97.1,> 100,11.4,32,> 100,> 100,–,–,> 100,> 100
